Legend:
Assay in all cases: relative viability (nuclei count vs DMSO), 5 days (fraction); higher = more cells survive
[1] = tested on: 201T
In short: (§1)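 Relative viability was taken as the ratio of nuclei in treated wells to nuclei in vehicle wells. Lung cancer cell lines in 1536-well plates received compounds by pin tool one day after seeding, either one drug alone or a fixed anchor-drug dose plus five library-drug doses (not always all listed) in √10 steps. Nuclei were counted on 4× images after 5 days of treatment, and values are medians of duplicate plates.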

[2] = tested on: BEN
In short: as §1

[3] = tested on: CAL-12T
In short: as §1

[4] = tested on: HCC-827
In short: as §1

[5] = tested on: HOP-62
In short: as §1

[6] = tested on: LCLC-103H
In short: as §1

[7] = tested on: LCLC-97TM1
In short: as §1

[8] = tested on: LXF-289
In short: as §1

[9] = tested on: NCI-H1355
In short: as §1

[10] = tested on: NCI-H1395
In short: as §1

[11] = tested on: NCI-H1437
In short: as §1

[12] = tested on: NCI-H1650
In short: as §1

[13] = tested on: NCI-H1793
In short: as §1

[14] = tested on: NCI-H2023
In short: as §1

[15] = tested on: NCI-H2087
In short: as §1

[16] = tested on: NCI-H2228
In short: as §1

[17] = tested on: NCI-H2405
In short: as §1

[18] = tested on: NCI-H3122
In short: as §1

[19] = tested on: NCI-H322M
In short: as §1

[20] = tested on: NCI-H647
In short: as §1

[21] = tested on: NCI-H727
In short: as §1

[22] = tested on: RERF-LC-KJ
In short: as §1

[23] = tested on: SK-LU-1
In short: as §1

Clc1ccc(Nc2nnc(Cc3ccncc3)c3ccccc23)cc1 [Vatalanib] + Cc1nc(Nc2ncc(C(=O)Nc3c(C)cccc3Cl)s2)cc(N2CCN(CCO)CC2)n1 [Dasatinib] (partner 0.075 µM)
relative viability ([1]; first compound 0.04 µM): 0.576
relative viability ([1]; first compound 0.1265 µM): 0.564
relative viability ([1]; first compound 0.4 µM): 0.594
relative viability ([1]; first compound 1.265 µM): 0.555
relative viability ([1]; first compound 4 µM): 0.579
relative viability ([2]; first compound 0.04 µM): 0.308
relative viability ([2]; first compound 0.1265 µM): 0.271
relative viability ([2]; first compound 0.4 µM): 0.315
relative viability ([2]; first compound 1.265 µM): 0.29
relative viability ([2]; first compound 4 µM): 0.342
relative viability ([3]; first compound 0.04 µM): 0.526
relative viability ([3]; first compound 0.1265 µM): 0.351
relative viability ([3]; first compound 0.4 µM): 0.464
relative viability ([3]; first compound 1.265 µM): 0.28
relative viability ([3]; first compound 4 µM): 0.374
relative viability ([4]; first compound 0.04 µM): 0.375
relative viability ([4]; first compound 0.1265 µM): 0.31
relative viability ([4]; first compound 0.4 µM): 0.166
relative viability ([4]; first compound 1.265 µM): 0.326
relative viability ([4]; first compound 4 µM): 0.275
relative viability ([5]; first compound 0.04 µM): 0.786
relative viability ([5]; first compound 0.1265 µM): 0.563
relative viability ([5]; first compound 0.4 µM): 0.712
relative viability ([5]; first compound 1.265 µM): 0.635
relative viability ([5]; first compound 4 µM): 0.602
relative viability ([6]; first compound 0.04 µM): 0.428
relative viability ([6]; first compound 0.1265 µM): 0.462
relative viability ([6]; first compound 0.4 µM): 0.543
relative viability ([6]; first compound 1.265 µM): 0.484
relative viability ([6]; first compound 4 µM): 0.396
relative viability ([7]; first compound 0.04 µM): 0.994
relative viability ([7]; first compound 0.1265 µM): 0.621
relative viability ([7]; first compound 0.4 µM): 0.839
relative viability ([7]; first compound 1.265 µM): 0.775
relative viability ([7]; first compound 4 µM): 0.871
relative viability ([8]; first compound 0.04 µM): 0.233
relative viability ([8]; first compound 0.1265 µM): 0.269
relative viability ([8]; first compound 0.4 µM): 0.336
relative viability ([8]; first compound 1.265 µM): 0.283
relative viability ([8]; first compound 4 µM): 0.204
relative viability ([9]; first compound 0.04 µM): 0.75
relative viability ([9]; first compound 0.1265 µM): 0.728
relative viability ([9]; first compound 0.4 µM): 0.778
relative viability ([9]; first compound 1.265 µM): 0.603
relative viability ([9]; first compound 4 µM): 0.633
relative viability ([10]; first compound 0.04 µM): 0.456
relative viability ([10]; first compound 0.1265 µM): 0.392
relative viability ([10]; first compound 0.4 µM): 0.384
relative viability ([10]; first compound 1.265 µM): 0.389
relative viability ([10]; first compound 4 µM): 0.407
relative viability ([11]; first compound 0.04 µM): 0.399
relative viability ([11]; first compound 0.1265 µM): 0.41
relative viability ([11]; first compound 0.4 µM): 0.286
relative viability ([11]; first compound 1.265 µM): 0.349
relative viability ([11]; first compound 4 µM): 0.417
relative viability ([12]; first compound 0.04 µM): 0.346
relative viability ([12]; first compound 0.1265 µM): 0.275
relative viability ([12]; first compound 0.4 µM): 0.354
relative viability ([12]; first compound 1.265 µM): 0.217
relative viability ([12]; first compound 4 µM): 0.289
relative viability ([13]; first compound 0.04 µM): 0.379
relative viability ([13]; first compound 0.1265 µM): 0.377
relative viability ([13]; first compound 0.4 µM): 0.458
relative viability ([13]; first compound 1.265 µM): 0.349
relative viability ([13]; first compound 4 µM): 0.4
relative viability ([14]; first compound 0.04 µM): 0.671
relative viability ([14]; first compound 0.1265 µM): 0.563
relative viability ([14]; first compound 0.4 µM): 0.653
relative viability ([14]; first compound 1.265 µM): 0.484
relative viability ([14]; first compound 4 µM): 0.482
relative viability ([15]; first compound 0.04 µM): 0.937
relative viability ([15]; first compound 0.1265 µM): 0.769
relative viability ([15]; first compound 0.4 µM): 1.09
relative viability ([15]; first compound 1.265 µM): 0.808
relative viability ([15]; first compound 4 µM): 0.884
relative viability ([16]; first compound 0.04 µM): 0.494
relative viability ([16]; first compound 0.1265 µM): 0.483
relative viability ([16]; first compound 0.4 µM): 0.595
relative viability ([16]; first compound 1.265 µM): 0.482
relative viability ([16]; first compound 4 µM): 0.447
relative viability ([17]; first compound 0.04 µM): 0.226
relative viability ([17]; first compound 0.1265 µM): 0.195
relative viability ([17]; first compound 1.265 µM): 0.197
relative viability ([17]; first compound 4 µM): 0.203
relative viability ([18]; first compound 0.04 µM): 0.986
relative viability ([18]; first compound 0.1265 µM): 0.838
relative viability ([18]; first compound 0.4 µM): 0.795
relative viability ([18]; first compound 1.265 µM): 0.768
relative viability ([18]; first compound 4 µM): 0.787
relative viability ([19]; first compound 0.04 µM): 0.248
relative viability ([19]; first compound 0.1265 µM): 0.238
relative viability ([19]; first compound 0.4 µM): 0.256
relative viability ([19]; first compound 1.265 µM): 0.247
relative viability ([19]; first compound 4 µM): 0.256
relative viability ([20]; first compound 0.04 µM): 0.205
relative viability ([20]; first compound 0.1265 µM): 0.184
relative viability ([20]; first compound 0.4 µM): 0.212
relative viability ([20]; first compound 1.265 µM): 0.191
relative viability ([20]; first compound 4 µM): 0.148
relative viability ([21]; first compound 0.04 µM): 0.339
relative viability ([21]; first compound 0.1265 µM): 0.37
relative viability ([21]; first compound 0.4 µM): 0.326
relative viability ([21]; first compound 1.265 µM): 0.41
relative viability ([21]; first compound 4 µM): 0.425
relative viability ([22]; first compound 0.04 µM): 0.851
relative viability ([22]; first compound 0.1265 µM): 0.828
relative viability ([22]; first compound 0.4 µM): 0.809
relative viability ([22]; first compound 1.265 µM): 0.623
relative viability ([22]; first compound 4 µM): 0.593
relative viability ([23]; first compound 0.04 µM): 0.182
relative viability ([23]; first compound 0.1265 µM): 0.188
relative viability ([23]; first compound 0.4 µM): 0.208
relative viability ([23]; first compound 1.265 µM): 0.184
relative viability ([23]; first compound 4 µM): 0.178

From the supplement of paper PMC10307832
